Experimental data: publication PMC7269146, “Jingzhaotoxin-X, a gating modifier of Kv4.2 and Kv4.3 potassium channels purified from the venom of the Chinese tarantula Chilobrachys jingzhao” (The Journal of Venomous Animals and Toxins Including …, 2020)
Where a SMILES comes first, the peptide text is derived from it. Bridges are numbered along the chain shown (N, C = ends).

Biological target: T1, Kv4.3 (Rattus norvegicus, UniProt Q62897)
T1 construct: expressed in transfected cells; host or cells: HEK293t
T1 sequence (Q62897 1-655): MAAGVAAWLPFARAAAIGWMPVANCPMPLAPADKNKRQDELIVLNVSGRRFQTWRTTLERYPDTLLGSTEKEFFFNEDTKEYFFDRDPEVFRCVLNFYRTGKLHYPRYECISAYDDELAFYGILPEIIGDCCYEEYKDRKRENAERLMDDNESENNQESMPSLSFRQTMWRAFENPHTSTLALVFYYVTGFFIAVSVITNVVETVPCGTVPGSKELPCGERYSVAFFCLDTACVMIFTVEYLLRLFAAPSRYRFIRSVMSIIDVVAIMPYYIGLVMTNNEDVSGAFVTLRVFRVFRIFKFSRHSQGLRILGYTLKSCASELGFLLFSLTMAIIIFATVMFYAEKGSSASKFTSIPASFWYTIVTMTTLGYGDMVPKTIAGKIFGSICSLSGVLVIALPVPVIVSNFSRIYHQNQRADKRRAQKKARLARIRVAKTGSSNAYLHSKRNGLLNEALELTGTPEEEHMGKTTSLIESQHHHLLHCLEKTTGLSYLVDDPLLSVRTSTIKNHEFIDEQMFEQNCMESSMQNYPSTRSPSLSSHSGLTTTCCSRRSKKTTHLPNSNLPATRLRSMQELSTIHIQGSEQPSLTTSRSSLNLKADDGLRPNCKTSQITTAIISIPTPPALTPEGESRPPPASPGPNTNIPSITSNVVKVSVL
Assay: current-voltage relationship / activation, Kv4.3
Assay type: cell-based
From the text: Rat cDNA genes encoding Kv4.2 (Accession: NM_031730.2) and Kv4.3 (Accession: AB003587.1) were subcloned to vector pcDNA3.1. In addition, human cDNA genes encoding Nav1.7 (Accession: DQ857292.1) and Nav1.5 (Accession: AB158469.2) were subcloned to vectors pcDNA3.1-mod and pcDNA3.1, separately. Then, Kv4.2, Kv4.3, Nav1.5 and Nav1.7 constructs were transiently transfected into the human embryonic kidney 293t (HEK293t) cells using lipofectamine 2000 (Invitrogen, USA) in accordance with manufacturer protocols. Thereafter, HEK293 cells were inoculated within Dulbecco’s modified Eagle’s medium (DMEM) containing 10% fetal bovine serum (FBS) at 5% CO2 and 37°C. The Kv4.3 channel and the Kv4.2 counterpart were then transfected in the absence of β subunit. Subsequently, cells were incubated with a DNA-lipofectamine mixture (one reporter plasmid for green fluorescence protein and channel constructs) for 4-6 h, and were washed with the fresh medium.
An EPC-10 patch-clamp amplifier (HEKA, Germany) was employed to record the potassium currents at the configuration of whole-cell patch-clamp under an ambient temperature of 22-25°C. The resistance was 2.0-3.0 MΩ when the recording pipette contained a full volume of internal solution (supplemented with 140 mM KCl, 10 mM HEPES, 2.5 mM MgCl2, 5 mM ATP and 11 mM EGTA). KOH was utilized to adjust the pH to 7.2, while sucrose was employed to adjust the osmolarity to 310 mOsm/L. The culture medium was replaced with an external solution containing 150 mM NaCl, 2.5 mM CaCl2, 10 mM HEPES, 2 mM MgCl2, 5 mM KCl, and 10 mM D-glucose. Similarly, sucrose and NaOH were applied to adjust the osmolarity to 330 mOsm/L and pH to 7.4. […] The series resistance was maintained at about 5 MΩ, with 65-70% compensation. Finally, the leakage currents and linear capacitance were subtracted digitally according to the P/4 protocol.
The voltage-dependent inhibition of Kv4.2 and Kv4.3 channels by JZTX-X was determined by the depolarizing pulses to potentials in 10 mV steps from −80 to +60 mV at an interval of 10 s and the holding potential of -80 mV. […] For quantifying the voltage-depending inhibition of Kv4.2 and Kv4.3 channels, the relative current was drawn based on the membrane potential. Under control conditions, those threshold potentials to initially activate Kv4.2 and Kv4.3 currents were around -40 mV. The JZTX-X treatment at 500 nM inhibited the Kv4.2 and Kv4.3 currents, and then the I-V relation shifted to the right by about 30 mV (from -39.5 ± 1.9 mV to -11.3 ± 1.2 mV ) and 40 mV (from -39.8 ± 1.5 mV to -2.5 ± 0.9 mV ), separately (Fig. 5C and D). Additionally, the channel conductance also shifted rightward by around 30 mV (data not shown).
Figure 5. […] All data were expressed as mean ± S.E.M (n = 5-7 cells).

Q: Which results are given for `CC(C)C[C@@H]1NC(=O)[C@H](CCCCN)NC(=O)[C@H](Cc2ccc(O)cc2)NC(=O)[C@@H]2CSSC[C@@H]3NC(=O)[C@H](Cc4ccc(O)cc4)NC(=O)[C@H](Cc4ccccc4)NC(=O)CNC(=O)[C@H](C)NC(=O)[C@H](CSSC[C@H](NC(=O)[C@@H](N)CC(C)C)C(=O)N[C@@H](CO)C(=O)N[C@@H](CCCNC(=N)N)C(=O)N[C@@H](CCC(=O)O)C(=O)NCC(=O)N[C@@H](CCC(=O)O)C(=O)N[C@@H](Cc4ccccc4)C(=O)N2)NC(=O)[C@H](CSSC[C@@H](C(=O)N[C@@H](Cc2ccc(O)cc2)C(=O)N[C@@H](CCCNC(=N)N)C(=O)N[C@@H](CC(N)=O)C(=O)O)NC(=O)[C@H](Cc2c[nH]cn2)NC(=O)[C@H](CC(C)C)NC(=O)[C@H](C(C)C)NC(=O)[C@H](Cc2ccccc2)NC(=O)[C@H](C)NC(=O)[C@H](CCCCN)NC3=O)NC(=O)[C@H](CCCCN)NC(=O)[C@H](CCCNC(=N)N)NC1=O` [JZTX-X, Jingzhaotoxin-X] (H-LCSREGEFCYKLRKCCAGFYCKAFVLHCYRN-OH; disulfide 2-16, 9-21, 15-28; N-terminus assumed)?
A: I-V relation potential after toxin, Kv4.3 (500 nM, control -39.8 ± 1.5 mV, holding -80 mV, n = 5-7 cells): -2.5 ± 0.9 mV; rightward shift of I-V relation, Kv4.3 (500 nM, holding -80 mV): ~40 mV; rightward shift of channel conductance, Kv4.3 (data not shown, channel not named separately): about 30 mV; voltage dependence of Kv4.3 inhibition (test potentials -10 to +60 mV, 100 nM and 500 nM): dependent on voltage
